How the values were obtained:
[1] = test system: VIOTR; assay: Post-emergence herbicidal action against VIOTR; type: in vivo, Viola tricolor; conditions: Viola tricolor, 504 h
In short: (§1)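 A WP or EC formulation diluted in water with 0.2% wetting agent was sprayed at 600 to 800 l/ha onto one-leaf-stage plants grown in sandy loam. About 3 weeks later, action was rated visually in percent, 100% being dead plants.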

[2] = test system: LOLRI; assay: Pre-emergence herbicidal action against LOLRI; type: in vivo, Lolium rigidum; conditions: Lolium rigidum, 504 h, 320 g/ha
In short: (§2)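 Greenhouse pots of sandy loam held seeds covered with soil, onto which the compound was applied before emergence. An aqueous suspension or emulsion of WP or EC was used at 600 to 800 l/ha with 0.2% wetting agent. Percent damage was judged visually at 3 weeks.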

[3] = test system: ECHCG; assay: Post-emergence herbicidal action against ECHCG; type: in vivo, Echinochloa crus-galli; conditions: Echinochloa crus-galli, 504 h
In short: as §1

[4] = test system: MATIN; assay: Pre-emergence herbicidal action against MATIN; type: in vivo, Matricaria inodora; conditions: Tripleurospermum inodorum, 504 h
In short: as §2

[5] = test system: ALOMY; assay: Pre-emergence herbicidal action against ALOMY; type: in vivo, Alopecurus myosuroides; conditions: Alopecurus myosuroides, 504 h, pre-emergence
In short: as §2

[6] = test system: ALOMY; assay: Post-emergence herbicidal action against ALOMY; type: in vivo, Alopecurus myosuroides; conditions: Alopecurus myosuroides, 504 h, visual assessment about 3 weeks after treatment vs untreated controls
In short: as §1

[7] = test system: HORMU; assay: Pre-emergence herbicidal action against HORMU; type: in vivo, Hordeum murinum; conditions: Hordeum murinum, 504 h, pre-emergence
In short: as §2

[8] = test system: POLCO; assay: Post-emergence herbicidal action against POLCO; type: in vivo, Polygonum convolvulus; conditions: Fallopia convolvulus, 504 h, dosage 80 g/ha
In short: as §1

[9] = test system: AVEFA; assay: Pre-emergence herbicidal action against AVEFA; type: in vivo, Avena fatua; conditions: Avena fatua, 504 h, pre-emergence
In short: as §2

[10] = test system: VERPE; assay: Pre-emergence herbicidal action against VERPE; type: in vivo, Veronica persica; conditions: Veronica persica, 504 h, dosage 320 g/ha
In short: as §2

[11] = test system: SETVI; assay: Pre-emergence herbicidal action against SETVI; type: in vivo, Setaria viridis; conditions: Setaria viridis, 504 h
In short: as §2

[12] = test system: POLCO; assay: Pre-emergence herbicidal action against POLCO; type: in vivo, Polygonum convolvulus; conditions: Fallopia convolvulus, 504 h
In short: as §2

[13] = test system: STEME; assay: Post-emergence herbicidal action against STEME; type: in vivo, Stellaria media; conditions: Stellaria media, 504 h
In short: as §1

[14] = test system: STEME; assay: Pre-emergence herbicidal action against STEME; type: in vivo, Stellaria media; conditions: Stellaria media, 504 h
In short: as §2

[15] = test system: PHBPU; assay: Post-emergence herbicidal action against PHBPU; type: in vivo, Pharbitis purpurea; conditions: Ipomoea purpurea, 504 h
In short: as §1

[16] = test system: AMARE; assay: Pre-emergence herbicidal action against AMARE; type: in vivo, Amaranthus retroflexus; conditions: Amaranthus retroflexus, 504 h, 100% = plants have died, 0% = like control plants
In short: as §2

[17] = test system: ABUTH; assay: Pre-emergence herbicidal action against ABUTH; type: in vivo, Abutilon theophrasti; conditions: Abutilon theophrasti, 504 h
In short: as §2

[18] = test system: MATIN; assay: Post-emergence herbicidal action against MATIN; type: in vivo, Matricaria inodora; conditions: Tripleurospermum inodorum, 504 h
In short: as §1

[19] = test system: AVEFA; assay: Post-emergence herbicidal action against AVEFA; type: in vivo, Avena fatua; conditions: Avena fatua, 504 h, visual assessment about 3 weeks after treatment, 100% = plants have died, 0% = like control plants
In short: as §1

[20] = test system: HORMU; assay: Post-emergence herbicidal action against HORMU; type: in vivo, Hordeum murinum; conditions: Hordeum murinum, 504 h
In short: as §1

[21] = test system: VERPE; assay: Post-emergence herbicidal action against VERPE; type: in vivo, Veronica persica; conditions: Veronica persica, 504 h
In short: as §1

[22] = test system: SETVI; assay: Post-emergence herbicidal action against SETVI; type: in vivo, Setaria viridis; conditions: Setaria viridis, 504 h
In short: as §1

[23] = test system: ABUTH; assay: Post-emergence herbicidal action against ABUTH; type: in vivo, Abutilon theophrasti; conditions: Abutilon theophrasti, 504 h, visual assessment about 3 weeks after treatment vs untreated controls
In short: as §1

[24] = 80 g/ha, scored visually after 3 weeks vs untreated controls (100% = plants have died, 0% = like control plants)
[25] = 20 g/ha, scored visually after 3 weeks, 100% = plants have died, 0% = like control plants
[26] = 320 g/ha, scored visually after 3 weeks, 100% = plants have died, 0% = like control plants

CCn1nnnc1NC(=O)c1ccc(C(F)(F)F)c(C(=O)NC)c1Cl [Example 2-129]
80%: pest or weed control at 5 g/ha ([1]; 5 g/ha) | pest or weed control at 20 g/ha ([14]; dosage 20 g/ha) | pest or weed control at 80 g/ha ([14]; dosage 80 g/ha) | pest or weed control at 5 g/ha ([18]; dosage 5 g/ha) | pest or weed control at 5 g/ha ([20]; dosage 5 g/ha) | pest or weed control at 20 g/ha ([21]; 20 g/ha)
90%: pest or weed control at 20 g/ha [5, 25] | pest or weed control at 80 g/ha ([7]; 80 g/ha) | pest or weed control at 20 g/ha ([20]; dosage 20 g/ha) | pest or weed control at 80 g/ha ([21]; 80 g/ha)
100%: pest or weed control at 20 g/ha ([1]; 20 g/ha) | pest or weed control at 80 g/ha ([1]; 80 g/ha) | pest or weed control at 320 g/ha [2] | pest or weed control at 20 g/ha ([3]; dosage 20 g/ha) | pest or weed control at 80 g/ha ([3]; dosage 80 g/ha) | pest or weed control at 20 g/ha ([4]; dosage 20 g/ha) | pest or weed control at 80 g/ha ([4]; dosage 80 g/ha) | pest or weed control at 320 g/ha ([4]; dosage 320 g/ha) | pest or weed control at 80 g/ha [5, 24] | pest or weed control at 320 g/ha [5, 26] | pest or weed control at 5 g/ha ([6]; dosage 5 g/ha) | pest or weed control at 20 g/ha ([6]; dosage 20 g/ha) | pest or weed control at 80 g/ha ([6]; dosage 80 g/ha) | pest or weed control at 320 g/ha ([7]; 320 g/ha) | pest or weed control at 80 g/ha [8] | pest or weed control at 80 g/ha ([9]; 80 g/ha) | pest or weed control at 20 g/ha [9, 25] | pest or weed control at 320 g/ha [9, 26] | pest or weed control at 320 g/ha [10] | pest or weed control at 20 g/ha ([11]; dosage 20 g/ha) | pest or weed control at 80 g/ha ([11]; dosage 80 g/ha) | pest or weed control at 320 g/ha ([11]; dosage 320 g/ha) | pest or weed control at 20 g/ha ([12]; dosage 20 g/ha) | pest or weed control at 80 g/ha ([12]; dosage 80 g/ha) | pest or weed control at 320 g/ha ([12]; dosage 320 g/ha) | pest or weed control at 20 g/ha ([13]; 20 g/ha) | pest or weed control at 80 g/ha ([13]; 80 g/ha) | pest or weed control at 5 g/ha ([13]; dosage 5 g/ha) | pest or weed control at 320 g/ha ([14]; dosage 320 g/ha) | pest or weed control at 20 g/ha ([15]; dosage 20 g/ha) | pest or weed control at 80 g/ha ([15]; dosage 80 g/ha) | pest or weed control at 20 g/ha ([16]; 20 g/ha, scored visually after 3 weeks vs untreated controls) | pest or weed control at 80 g/ha ([16]; 80 g/ha, scored visually after 3 weeks vs untreated controls) | pest or weed control at 320 g/ha ([16]; 320 g/ha, scored visually after 3 weeks) | pest or weed control at 80 g/ha [17, 24] | pest or weed control at 320 g/ha ([17]; Dosage: 320 g/ha, scored visually after 3 weeks, 100% = plants have died, 0% = like control plants) | pest or weed control at 20 g/ha ([17]; dosage 20 g/ha, scored visually after 3 weeks vs untreated controls, 100% = plants have died, 0% = like control plants, read-out: Pre-emergence action against ABUTH (herbicidal activity in percent)) | pest or weed control at 20 g/ha ([18]; dosage 20 g/ha) | pest or weed control at 80 g/ha ([18]; dosage 80 g/ha) | pest or weed control at 5 g/ha ([19]; 5 g/ha) | pest or weed control at 20 g/ha ([19]; 20 g/ha) | pest or weed control at 80 g/ha ([19]; 80 g/ha) | pest or weed control at 80 g/ha ([20]; dosage 80 g/ha) | pest or weed control at 5 g/ha ([22]; dosage 5 g/ha) | pest or weed control at 20 g/ha ([22]; dosage 20 g/ha) | pest or weed control at 80 g/ha ([22]; dosage 80 g/ha) | pest or weed control at 5 g/ha ([23]; dosage 5 g/ha) | pest or weed control at 20 g/ha ([23]; dosage 20 g/ha) | pest or weed control at 80 g/ha ([23]; dosage 80 g/ha)

Reference: patent US12655116B2, “Substituted isophthalic acid diamides” (Bayer Aktiengesellschaft, priority 2020, dated 2026)
